For assay [1], the system named is Mus musculus. Briefly: Mean survival time against trophozoite induced Plasmodium berghei in mice minus control was evaluated at a dose 80 mg/kg. The class given is functional.
For assay [2], the system named is Mus musculus. Put plainly: Mean survival time against trophozoite induced Plasmodium berghei in mice minus control was evaluated at a dose 20 mg/kg. The class given is functional.
Assay [3] deals with Mus musculus. Put plainly: Mean survival time against trophozoite induced Plasmodium berghei in mice minus control was evaluated at a dose 320 mg/kg; 10 survived out of 10 animals at 60 days postinjection. The class given is functional, organism-based. Set-up: dose 320 mg/kg.
Assay [4] has as its system Mus musculus. Briefly: Mean survival time against trophozoite induced Plasmodium berghei in mice minus control was evaluated at a dose 160 mg/kg; 5 survived out of 5 animals at 60 days postinjection. The class given is functional, organism-based. The arrangement: dose 160 mg/kg.
The test system of assay [5] is Mus musculus. Briefly: Mean survival time against trophozoite induced Plasmodium berghei in mice minus control was evaluated at a dose 40 mg/kg. The class given is functional.
Assay [6] deals with Mus musculus. Briefly: Mean survival time against trophozoite induced Plasmodium berghei in mice minus control was evaluated at a dose 80 mg/kg. The class given is functional.
Assay [7] deals with Mus musculus. Put plainly: Mean survival time against trophozoite induced Plasmodium berghei in mice minus control was evaluated at a dose 320 mg/kg. The class given is functional.
The subject of assay [8] is Mus musculus. Put plainly: Mean survival time against trophozoite induced Plasmodium berghei in mice minus control was evaluated at a dose 160 mg/kg. The class given is functional.
Assay [9] relates to Mus musculus. Put plainly: Mean survival time against trophozoite induced Plasmodium berghei in mice minus control was evaluated at a dose 640 mg/kg; 7 survived out of 10 animals at 60 days postinjection. The class given is functional, organism-based. Set-up: dose 640 mg/kg.
Assay [10] deals with Mus musculus. Briefly: Mean survival time against trophozoite induced Plasmodium berghei in mice minus control was evaluated at a dose 40 mg/kg; 5 survived out of 5 animals at 60 days postinjection. The class given is functional, organism-based. Set-up: dose 40 mg/kg.
The test system of assay [11] is Mus musculus. Put plainly: Mean survival time against trophozoite induced Plasmodium berghei in mice minus control was evaluated at a dose 320 mg/kg; 5 survived out of 5 animals at 60 days postinjection. Set-up: dose 320 mg/kg. The class given is functional, organism-based.
In assay [12] the test system is Mus musculus. Put plainly: Mean survival time against trophozoite induced Plasmodium berghei in mice minus control was evaluated at a dose 640 mg/kg; 5 survived out of 5 animals at 60 days postinjection. The class given is functional, organism-based. Set-up: dose 640 mg/kg.
Assay [13] relates to Mus musculus. Put plainly: Mean survival time against trophozoite induced Plasmodium berghei in mice minus control was evaluated at a dose 20 mg/kg; 3 survived out of 5 animals at 60 days postinjection. The arrangement: dose 20 mg/kg. The class given is functional, organism-based.
Assay [14] has as its system Mus musculus. Put plainly: Mean survival time against trophozoite induced Plasmodium berghei in mice minus control was evaluated at a dose 80 mg/kg; 5 survived out of 5 animals at 60 days postinjection. The class given is functional, organism-based. The arrangement: dose 80 mg/kg.
The subject of assay [15] is Mus musculus. Briefly: Mean survival time against trophozoite induced Plasmodium berghei in mice minus control was evaluated at a dose 80 mg/kg; 4 survived out of 5 animals at 60 days postinjection. The class given is functional, organism-based. Set-up: dose 80 mg/kg.
Assay [16] deals with Mus musculus. Briefly: Mean survival time against trophozoite induced Plasmodium berghei in mice minus control was evaluated at a dose 640 mg/kg. The class given is functional.
For assay [17], the system named is Mus musculus. Briefly: Mean survival time against trophozoite induced Plasmodium berghei in mice minus control was evaluated at a dose 160 mg/kg; 1 survived out of 5 animals at 60 days postinjection. The class given is functional, organism-based. The arrangement: dose 160 mg/kg.
Assay [18] deals with Mus musculus. Put plainly: Mean survival time against trophozoite induced Plasmodium berghei in mice minus control was evaluated at a dose 40 mg/kg; 8 survived out of 10 animals at 60 days postinjection. The class given is functional, organism-based. The arrangement: dose 40 mg/kg.
For assay [19], the system named is Mus musculus. Put plainly: Mean survival time against trophozoite induced Plasmodium berghei in mice minus control was evaluated at a dose 40 mg/kg; 4 survived out of 10 animals at 60 days postinjection. The class given is functional, organism-based. Set-up: dose 40 mg/kg.
The subject of assay [20] is Mus musculus. Put plainly: Mean survival time against trophozoite induced Plasmodium berghei in mice minus control was evaluated at a dose 160 mg/kg; 10 survived out of 10 animals at 60 days postinjection. The class given is functional, organism-based. Set-up: dose 160 mg/kg.
For assay [21], the system named is Mus musculus. Put plainly: Mean survival time against trophozoite induced Plasmodium berghei in mice minus control was evaluated at a dose 80 mg/kg; 10 survived out of 10 animals at 60 days postinjection. The class given is functional, organism-based. Set-up: dose 80 mg/kg.
Assay [22] has as its system Mus musculus. Put plainly: Mean survival time against trophozoite induced Plasmodium berghei in mice minus control was evaluated at a dose 10 mg/kg. The class given is functional.
The test system of assay [23] is Mus musculus. Put plainly: Mean survival time against trophozoite induced Plasmodium berghei in mice minus control was evaluated at a dose 40 mg/kg; 15 survived out of 15 animals at 60 days postinjection. The arrangement: dose 40 mg/kg. The class given is functional, organism-based.
For assay [24], the system named is Mus musculus. Put plainly: Mean survival time against trophozoite induced Plasmodium berghei in mice minus control was evaluated at a dose 20 mg/kg; 8 survived out of 15 animals at 60 days postinjection. The class given is functional, organism-based. The arrangement: dose 20 mg/kg.
Assay [25] concerns Mus musculus. Put plainly: Mean survival time against trophozoite induced Plasmodium berghei in mice minus control was evaluated at a dose 320 mg/kg; 3 toxic death occurred out of 5 animals on days 2-5 after injection. The class given is functional, organism-based. The arrangement: dose 320 mg/kg.
In assay [26] the test system is Mus musculus. Briefly: Mean survival time against trophozoite induced Plasmodium berghei in mice minus control was evaluated at a dose 80 mg/kg; 5 survived out of 5 animals at 60 days postinjection. Set-up: dose 80 mg/kg. The class given is functional, organism-based.
Assay [27] has as its system Mus musculus. Briefly: Mean survival time against trophozoite induced Plasmodium berghei in mice minus control was evaluated at a dose 40 mg/kg; 4 survived out of 10 animals at 60 days postinjection. The class given is functional, organism-based. Set-up: dose 40 mg/kg.
In assay [28] the test system is Mus musculus. Put plainly: Mean survival time against trophozoite induced Plasmodium berghei in mice minus control was evaluated at a dose 160 mg/kg; 2 toxic death occurred out of 10 animals on days 2-5 after injection. The class given is functional, organism-based. Set-up: dose 160 mg/kg.
Assay [29] concerns Mus musculus. Put plainly: Mean survival time against trophozoite induced Plasmodium berghei in mice minus control was evaluated at a dose 640 mg/kg; 10 toxic death occurred out of 10 animals on days 2-5 after injection. Set-up: dose 640 mg/kg. The class given is functional, organism-based.

Structures are written as SMILES.

Consider `Nc1nc(N)c2nc(N3CCCCC3Cc3ccccc3)ccc2n1` (stereo not drawn), for which the “Delta MST” value is 8.2 days in the assay on Mus musculus [1]; 3 days in the assay on Mus musculus [2]; “Survivals 10/10” in the assay on Mus musculus [3]; “Survivals 5/5” in the assay with Mus musculus [4]; 4.9 days in the assay with Mus musculus [5].
Regarding `Nc1nc(N)c2nc(NCc3ccc(Cl)c(Cl)c3)ccc2n1`, the “Delta MST” value is 4.9 days in the assay on Mus musculus [6]; 15.3 days in the assay on Mus musculus [7]; 0.5 days in the assay on Mus musculus [2]; 12.4 days with Mus musculus [8]; “Survivals 7/10” with Mus musculus [9]; 1.8 days with Mus musculus [5].
On to `CN(Cc1cccc(Cl)c1)c1ccc2nc(N)nc(N)c2n1`, for which the “Delta MST” value in the assay on Mus musculus [10] was “Survivals 5/5”; in the assay with Mus musculus [11] it was “Survivals 5/5”; in the assay on Mus musculus [12], “Survivals 5/5”; in the assay with Mus musculus [4], “Survivals 5/5”; in the assay with Mus musculus [13], “Survivals 3/5”; in the assay on Mus musculus [14], “Survivals 5/5”.
Consider `CN(Cc1ccc(C(F)(F)F)cc1)c1ccc2nc(N)nc(N)c2n1`, for which the “Delta MST” value in the assay on Mus musculus [15] is “Survivals 4/5”; with Mus musculus [7] it was 2.9 days; in the assay on Mus musculus [16], 2.5 days; in the assay with Mus musculus [2], 8.1 days; in the assay on Mus musculus [17] it was “Survivals 1/5”; in the assay on Mus musculus [18], “Survivals 8/10”.
Take `Nc1nc(N)c2cc(N(C=O)Cc3ccc(Cl)c(Cl)c3)ccc2n1`: the “Delta MST” value was 8.2 days with Mus musculus [2]; “Survivals 4/10” in the assay on Mus musculus [19]; “Survivals 10/10” with Mus musculus [20]; “Survivals 5/5” in the assay with Mus musculus [12]; “Survivals 10/10” in the assay with Mus musculus [3]; “Survivals 10/10” in the assay on Mus musculus [21]. The “Delta MST” value with Mus musculus [22] was determined as 4.3 days.
Take `CN(Cc1ccc(Cl)c(Cl)c1)c1ccc2nc(N)nc(N)c2c1`: the “Delta MST” value in the assay on Mus musculus [23] is recorded as “Survivals 15/15”; with Mus musculus [24], “Survivals 8/15”; in the assay with Mus musculus [20], “Survivals 10/10”; in the assay on Mus musculus [12], “Survivals 5/5”; in the assay with Mus musculus [3], “Survivals 10/10”; with Mus musculus [21] it was “Survivals 10/10”. Moreover, the “Delta MST” value with Mus musculus [22] was determined as 8.7 days.
For `CCN(Cc1ccccc1)c1ccc2nc(N)nc(N)c2n1`, the “Delta MST” value is “Toxic Deaths 3/5” in the assay with Mus musculus [25]; 9.7 days with Mus musculus [2]; “Survivals 5/5” with Mus musculus [26]; “Survivals 4/10” in the assay with Mus musculus [27]; “Toxic Deaths 2/10” in the assay with Mus musculus [28]; “Toxic Deaths 10/10” in the assay on Mus musculus [29].

(Values after ChEMBL document CHEMBL1122946, “Folate antagonists. 21. Synthesis and antimalarial properties of 2,4-diamino-6-(benzylamino)pyrido[3,2-d]pyrimidines” (1985).)
